Our source for the LC retention time values is the RepoRT retention time repository.

This data set can be described thus: HILIC, Waters ACQUITY UPLC BEH HILIC, 150 × 2.1 mm, 1.7 µm, 40 °C, 0.6 mL/min, estimated dead time 0.55 min; A: water + 0.1% formic acid + 20 mM ammonium formate, pH 3.5; B: acetonitrile + 0.1% formic acid, pH 3; gradient (min/%B) 0/95 0.1/95 4.6/80 5.5/50 7.0/50 7.1/95 7.2/95 7.3/95 7.4/95 7.5/95 7.6/95 7.7/95 7.8/95 12.50/95 12.65/95. To be noted: stereoisomer not certain.
In the case of `CN(C)C(N)=NCCC[C@H](N)C(=O)O` [Asymmetric Dimethylarginine], the LC retention time is 5.91 min.
For `Nc1ccnc(=O)[nH]1` [Cytosine], the LC retention time was 2.39 min.
Next, `Cn1cc(C(N)=O)ccc1=O` [N1-methyl-2-pyridone-5-carboxamide]: 1.24 min.
Next, `CCCCCCCCCCCC(=O)OC(CC(=O)[O-])C[N+](C)(C)C` (configuration not stated) [Lauroylcarnitine CAR(12:0)]: 3.97 min; `CC(=O)N[C@@H]1C(O)O[C@H](CO)[C@@H](O)[C@@H]1O` (stereo partly drawn) [N-Acetyl-D-mannosamine]: 1.81 min; `C=CC1=C(C)C(C=c2[nH]c(=Cc3[nH]c(C=C4NC(=O)C(C)=C4C=C)c(C)c3CCC(=O)O)c(CCC(=O)O)c2C)=NC1=O` [Biliverdin]: 0.732 min.
The result for `Cn1c(=O)c2c(ncn2C)n(C)c1=O` [Caffeine] reads 0.85 min; that for `CC(C)(CO)C(O)C(=O)NCCC(=O)O` (configuration not stated) [Pantothenic acid], 1.13 min.
In the case of `CC(CCC(=O)NCCS(=O)(=O)O)C1CCC2C3C(O)CC4CC(O)CCC4(C)C3CCC12C` (configuration not stated) [Tauroursodeoxycholic acid], the LC retention time was 1.75 min.
Next, `C[N+](C)(C)CCCCC(N)C(=O)[O-]` [N6,N6,N6-Trimethyl-L-lysine]: 6.16 min; `Cn1cnc2nc(N)[nH]c(=O)c21` [7-Methylguanine]: 2.19 min.
The result for `CC(=O)NCCCN1CCCC1=O` [N-Acetylisoputreanine-gamma-lactam] reads 1.83 min; that for `O=C(O)C1CCCN1` (configuration not stated) [Proline], 4.46 min; that for `O=c1[nH]cnc2c1ncn2C1OC(CO)C(O)C1O` (configuration not stated) [Inosine], 1.61 min.
The result for `c1cncc(C2CCCN2)c1` (configuration not stated) [Nornicotine] reads 4.22 min.
Consider `CCCCCC=CC(=O)OC(CC(=O)[O-])C[N+](C)(C)C` (configuration not stated) [2-Octenoylcarnitine CAR(8:1)], for which the LC retention time was 4.2 min.
Next, `CN1CC(=O)NC1=N` [Creatinine]: 2.51 min; `CCCCCCCCCCCCCC(=O)OC(CC(=O)[O-])C[N+](C)(C)C` (configuration not stated) [Tetradecanoylcarnitine CAR(14:0)]: 3.78 min.
Regarding `NC(=O)NCCCC(N)C(=O)O` (configuration not stated) [Citrulline], the LC retention time is 5.74 min.
Next, `CN(CC(=O)O)C(=N)N` [Creatine]: 5.06 min; `CN(C)C(=N)N=C(N)N` [1,1-Dimethylbiguanide (Metformin)]: 3.42 min.
Next, `NC(=O)CCC(N)C(=O)O` (configuration not stated) [Glutamine]: 5.06 min; `NCCC(=O)NC(Cc1cnc[nH]1)C(=O)O` (configuration not stated) [Carnosine]: 6.01 min.
Next, `O=C(O)CNC(=O)c1ccccc1` [Hippuric acid]: 1.16 min; `O=C(O)C=Cc1cnc[nH]1` [Urocanic acid]: 1.3 min.
On to `NC(Cc1cnc[nH]1)C(=O)O` (configuration not stated) [Histidine], for which the LC retention time is 6.15 min.
Consider `O=C1CCC(c2cccnc2)N1` (configuration not stated) [Norcotinine], for which the LC retention time was 1.6 min.
Take `CC(O)CC(=O)OC(CC(=O)[O-])C[N+](C)(C)C` (configuration not stated) [3-Hydroxybutyrylcarnitine CAR(4:0-OH)]: the LC retention time is 5.4 min.
The result for `C[N+](C)(C)C(Cc1c[nH]c2ccccc12)C(=O)[O-]` (configuration not stated) [Tryptophan betaine] reads 3.91 min.
Next, `CCCCCCCCCC(=O)OC(CC(=O)[O-])C[N+](C)(C)C` (configuration not stated) [Decanoylcarnitine CAR(10:0)]: 3.92 min.
The result for `C[n+]1cccc(C(=O)[O-])c1` [Trigonelline] reads 4.85 min.
Consider `CC(=O)C[N+](C)(C)C` [Trimethylaminoacetone], for which the LC retention time was 3.51 min.
The result for `CC(C)C(=O)OC(CC(=O)[O-])C[N+](C)(C)C` (configuration not stated) [Isobutyrylcarnitine] reads 4.69 min.
Next, `CC(=O)NC(CCCCN)C(=O)O` [N-alpha-acetyl-L-lysine]: 5.44 min.
Next, `CCCCCCCCCCCCCCCCCC(=O)OC(CC(=O)[O-])C[N+](C)(C)C` (configuration not stated) [Stearoylcarnitine CAR(18:0)]: 3.74 min; `CC(=O)NCCCC[C@H](N)C(=O)O` [N6-Acetyl-L-lysine]: 5.44 min; `CCC(C)C(=O)OC(CC(=O)[O-])C[N+](C)(C)C` (configuration not stated) [2-methylbutyrylcarnitine]: 4.39 min.
For the compound `CN1CCCC1c1cccnc1` (configuration not stated) [Nicotine], the LC retention time is 4.14 min.
Next, `CC(CCC(=O)NCC(=O)O)C1CCC2C3C(O)CC4CC(O)CCC4(C)C3CCC12C` (configuration not stated) [Glycoursodeoxycholic acid]: 1.85 min; `CC12CCC(=O)C=C1CCC1C2C(O)CC2(C)C1CCC2(O)C(=O)CO` (configuration not stated) [Cortisol]: 0.71 min; `NCCS(=O)(=O)O` [Taurine]: 2.61 min.
In the case of `CC(=O)OC(CC(=O)[O-])C[N+](C)(C)C` [L-Acetylcarnitine CAR(2:0)], the LC retention time is 5.03 min.
Next, `Nc1ncnc2c1ncn2C1OC(CO)C(O)C1O` (configuration not stated) [Adenosine]: 1.75 min.
Next, `Nc1nc2ncc(C(O)C(O)CO)nc2c(=O)[nH]1` (configuration not stated) [Neopterin]: 2.32 min; `Cn1cncc1CC(NC(=O)CCN)C(=O)O` (configuration not stated) [Anserine]: 6.1 min.
The result for `O=c1[nH]c(=O)c2[nH]cnc2[nH]1` [Xanthine] reads 1.15 min.
Consider `C[N+](C)(C)CC(=O)[O-]` [Betaine], for which the LC retention time was 4.78 min.
Next, `C[n+]1cccc(C(N)=O)c1` [1-Methylnicotinamide]: 4.08 min; `CN(C)c1nc2c(ncn2C2OC(CO)C(O)C2O)c(=O)[nH]1` (configuration not stated) [N2,N2-Dimethylguanosine]: 1.9 min; `Cn1cnc2c(ncn2C2OC(CO)C(O)C2O)c1=O` (configuration not stated) [N1-Methylinosine]: 1.44 min.
The result for `C[S+](CCC(N)C(=O)O)CC1OC(n2cnc3c(N)ncnc32)C(O)C1O` (configuration not stated) [S-Adenosylmethionine] reads 6.25 min; that for `CCCCCC(=O)OC(CC(=O)[O-])C[N+](C)(C)C` (configuration not stated) [Hexanoylcarnitine CAR(6:0)], 4.34 min; that for `CNc1ncnc2c1ncn2C1OC(CO)C(O)C1O` (configuration not stated) [N6-Methyladenosine], 1.43 min.
Next, `O=C(O)C1CCCCN1` (configuration not stated) [Pipecolic acid]: 4.48 min; `CN1CCCC1C(=O)O` (configuration not stated) [N-methylproline]: 4.48 min.
In the case of `C[N+](C)(C)CC(O)CC(=O)[O-]` (configuration not stated) [Carnitine], the LC retention time is 5.32 min.
The result for `CC(=O)NCCCCN` [N-Acetylputrescine] reads 4.4 min; that for `Nc1c(O)cccc1C(=O)O` [3-Hydroxyanthranilic acid], 0.69 min.
The result for `CC(C)CC(=O)OC(CC(=O)[O-])C[N+](C)(C)C` (configuration not stated) [Isovalerylcarnitine] reads 4.39 min; that for `NC(Cc1c[nH]c2ccccc12)C(=O)O` (configuration not stated) [Tryptophan], 3.82 min.
Next, `NC(Cc1ccccc1)C(=O)O` (configuration not stated) [Phenylalanine]: 3.78 min; `CN1C(=O)CCC1c1cccnc1` (configuration not stated) [Cotinine]: 1.4 min; `NC(Cc1ccc(OS(=O)(=O)O)cc1)C(=O)O` (configuration not stated) [O-Sulfotyrosine]: 3.2 min.
Consider `CC(=O)NCCCNCCCCN` [N1-Acetylspermidine], for which the LC retention time is 5.99 min.
Next, `O=C(O)[C@@H]1CCCN1C(=O)[C@@H]1CCCN1` [L-prolyl-L-proline]: 5.4 min; `NCCCCC(N)C(=O)O` (configuration not stated) [Lysine]: 5.98 min; `CC(CCC(=O)NCCS(=O)(=O)O)C1CCC2C3CCC4CC(O)CCC4(C)C3CC(O)C12C` (configuration not stated) [Taurodeoxycholic Acid]: 1.81 min.
The result for `CC(=O)Nc1ccn(C2OC(CO)C(O)C2O)c(=O)n1` (configuration not stated) [N4-Acetylcytidine] reads 1.27 min; that for `CCCCCCCCCCCCCCCC(=O)OC(CC(=O)[O-])C[N+](C)(C)C` (configuration not stated) [Palmitoylcarnitine CAR(C16:0)], 3.78 min.
Take `NC(N)=NCCCCC(N)C(=O)O` (configuration not stated) [Homoarginine]: the LC retention time was 5.92 min.
As to `CSCCC(N)C(=O)O` (configuration not stated) [Methionine], the LC retention time is 4.11 min.
In the case of `CC(=O)Nc1ccc(O)cc1` [Acetaminophen], the LC retention time is 0.71 min.
Turning to `NCCc1ccc(O)c(OS(=O)(=O)O)c1` [Dopamine-3-O-sulfate], the LC retention time was 1.07 min.
As for `CC(N)C(=O)O` (configuration not stated) [Alanine], the LC retention time is 4.57 min.
Next, `CCC(=O)OC(CC(=O)[O-])C[N+](C)(C)C` (configuration not stated) [Propionylcarnitine CAR(3:0)]: 4.82 min; `CC(CCC(=O)NCC(=O)O)C1CCC2C3C(O)CC4CC(O)CCC4(C)C3CC(O)C12C` (configuration not stated) [Glycocholic Acid]: 2.87 min.
As for `Cn1c(N)nc2c(ncn2C2OC(CO)C(O)C2O)c1=O` (configuration not stated) [1-Methylguanosine], the LC retention time was 1.73 min.
Next, `Cc1ncc(C[n+]2csc(CCO)c2C)c(N)n1` [Thiamine]: 5.49 min; `CC(=O)CC(c1ccccc1)c1c(O)c2ccccc2oc1=O` (configuration not stated) [Warfarin]: 0.673 min.
Next, `CC(CCC(=O)NCCS(=O)(=O)O)C1CCC2C3C(O)CC4CC(O)CCC4(C)C3CC(O)C12C` (configuration not stated) [Taurocholic Acid]: 2.47 min; `C[n+]1ccccc1` [N-Methylpyridinium]: 3.82 min; `CCCCC(=O)OC(CC(=O)[O-])C[N+](C)(C)C` (configuration not stated) [Valerylcarnitine]: 4.39 min.
